In PMC9533837 (Antiviral Research, 2003):
In brackets after ≈: the same amount, converted by molar mass. Read-outs that look alike come from different tables or passages of the source.

Key:
VAR isolate V73-225 = experiment: organism not typed; type: cell-based, variola; conditions: Vero, read-out: IC50, VAR isolate V73-225
VAR isolate Butler = experiment: organism not typed; type: cell-based, variola minor; conditions: Vero, read-out: IC50, VAR isolate Butler
CPX Brighton [1] = experiment: organism not typed; type: cell-based, cowpox
VAR isolate V74-227 = experiment: organism not typed; type: cell-based, variola; conditions: Vero, read-out: IC50, VAR isolate V74-227
VAR isolate K1629 = experiment: organism not typed; type: cell-based, variola; conditions: Vero, read-out: IC50, VAR isolate K1629
VAR isolate Rumbec = experiment: organism not typed; type: cell-based, variola; conditions: Vero, read-out: IC50, VAR isolate Rumbec
[2] = test system: VAR-YAM (1946 Japan Yamada isolate of VAR major); experiment: organism not typed; type: cell-based, variola major
[3] = test system: VAR-BSH (1975 Bangladesh isolate of VAR major); experiment: organism not typed; type: cell-based, variola major
VAR isolate Rafig Lahore = experiment: organism not typed; type: cell-based, variola; conditions: Vero, read-out: IC50, VAR isolate Rafig Lahore
VAR isolate Somalia = experiment: organism not typed; type: cell-based, variola; conditions: Vero, read-out: IC50, VAR isolate Somalia
[4] = test system: MPX Zaire (V79-1-005-Scab); experiment: organism not typed; type: cell-based, monkeypox
VAR isolate Eth17 = experiment: organism not typed; type: cell-based, variola; conditions: Vero, read-out: IC50, VAR isolate Eth17
VAR isolate V68-59 = experiment: organism not typed; type: cell-based, variola minor; conditions: Vero, read-out: IC50, VAR isolate V68-59
[5] = test system: VAR-BSH (1975 Bangladesh isolate of VAR major); experiment: organism not typed; type: cell-based, variola major; conditions: for IC50: Vero
[6] = test system: MPX Zaire (V79-1-005-Scab); experiment: organism not typed; type: cell-based, monkeypox; conditions: for IC50: Vero
VAR isolate V72-119 = experiment: organism not typed; type: cell-based, variola; conditions: Vero, read-out: IC50, VAR isolate V72-119
VAR isolate V73-175 = experiment: organism not typed; type: cell-based, variola; conditions: Vero, read-out: IC50, VAR isolate V73-175
VAR isolate V77-1605 = experiment: organism not typed; type: cell-based, variola; conditions: Vero, read-out: IC50, VAR isolate V77-1605
VAR isolate 102 = experiment: organism not typed; type: cell-based, variola; conditions: Vero, read-out: IC50, VAR isolate 102
VAR isolate 7124 = experiment: organism not typed; type: cell-based, variola; conditions: Vero, read-out: IC50, VAR isolate 7124
VAC Copenhagen [7] = experiment: microbe, parasite or virus in culture; type: cell-based, vaccinia virus
VAR isolate V70-222 = experiment: organism not typed; type: cell-based, variola; conditions: Vero, read-out: IC50, VAR isolate V70-222
VAC Copenhagen [8] = experiment: microbe, parasite or virus in culture; type: cell-based, vaccinia virus; remark: listed apart in the source
VAR isolate Jee = experiment: organism not typed; type: cell-based, variola; conditions: Vero, read-out: IC50, VAR isolate Jee
VAR isolate Minn124 = experiment: organism not typed; type: cell-based, variola minor; conditions: Vero, read-out: IC50, VAR isolate Minn124
VAR isolate V70-46 = experiment: organism not typed; type: cell-based, variola; conditions: Vero, read-out: IC50, VAR isolate V70-46
[9] = test system: VAR-GAR (1966 Brazil Garcia isolate of VAR minor); experiment: organism not typed; type: cell-based, variola minor
VAR isolate Heidelberg = experiment: organism not typed; type: cell-based, variola; conditions: Vero, read-out: IC50, VAR isolate Heidelberg
LLC-MK2 cells = conditions: rhesus monkey
VAR isolate Higgins = experiment: organism not typed; type: cell-based, variola; conditions: Vero, read-out: IC50, VAR isolate Higgins
[10] = test system: VAR-GAR (1966 Brazil Garcia isolate of VAR minor); experiment: organism not typed; type: cell-based, variola minor; conditions: for IC50: Vero
Vero cells = conditions: African green monkey
all VAR isolates tested = experiment: organism not typed; type: cell-based, variola; conditions: Vero, read-out: IC50, VAR mean
VAR isolate Shahzaman = experiment: organism not typed; type: cell-based, variola; conditions: Vero, read-out: IC50, VAR isolate Shahzaman
VAR isolate Horn = experiment: organism not typed; type: cell-based, variola; conditions: Vero, read-out: IC50, VAR isolate Horn
[11] = test system: orthopoxviruses (VAR-BSH, VAR-YAM, VAR-GAR, MPX, CPX, VAC); experiment: organism not typed; type: cell-based; conditions: read-out: mean IC50 against the panel of viruses
VAR isolate Iran 2602 = experiment: organism not typed; type: cell-based, variola; conditions: Vero, read-out: IC50, VAR isolate Iran 2602
[12] = test system: VAR-YAM (1946 Japan Yamada isolate of VAR major); experiment: organism not typed; type: cell-based, variola major; conditions: for IC50: Vero
VAR isolate 7125 = experiment: organism not typed; type: cell-based, variola; conditions: Vero, read-out: IC50, VAR isolate 7125
CPX Brighton [13] = experiment: organism not typed; type: cell-based, cowpox; conditions: for IC50: Vero
VAR isolate Hinden = experiment: organism not typed; type: cell-based, variola; conditions: Vero, read-out: IC50, VAR isolate Hinden

Nc1ccn(C[C@H]2COP(=O)(O)CO2)c(=O)n1 [cHPMPC, 1-[(S)-2-hydroxy-2-oxo-1-[4,2-dioxaphosphorinan-5-yl]methyl]cytosine]
IC50 (VAR isolate V73-225): 9 µg/mL (≈ 34.5 µM)
IC50 (VAR isolate Butler): 6 µg/mL (≈ 23 µM)
Therapeutic index (TI) CPX LLC-MK2 (CPX Brighton [1]): 1.0
IC50 (CPX Brighton [1]; LLC-MK2, read-out: IC50 CPX LLC-MK2): > 100 µg/mL
IC50 (VAR isolate V74-227): 9 µg/mL (≈ 34.5 µM)
IC50 (VAR isolate K1629): 25 µg/mL (≈ 95.7 µM)
IC50 (VAR isolate Rumbec): 16 µg/mL (≈ 61.3 µM)
Therapeutic index (TI) VAR-YAM LLC-MK2 [2]: 16.4
IC50 ([2]; LLC-MK2, read-out: IC50 VAR-YAM LLC-MK2): 6.1 µg/mL (≈ 23.4 µM)
Therapeutic index (TI) VAR-BSH LLC-MK2 [3]: 4.9
IC50 ([3]; LLC-MK2, read-out: IC50 VAR-BSH LLC-MK2): 20.3 µg/mL (≈ 77.7 µM)
IC50 (VAR isolate Rafig Lahore): 18 µg/mL (≈ 68.9 µM)
IC50 (VAR isolate Somalia): 8 µg/mL (≈ 30.6 µM)
Therapeutic index (TI) MPX LLC-MK2 [4]: 29.4
IC50 ([4]; LLC-MK2, read-out: IC50 MPX LLC-MK2): 3.4 µg/mL (≈ 13 µM)
IC50 (VAR isolate Eth17): 17 µg/mL (≈ 65.1 µM)
IC50 (VAR isolate V68-59): 20 µg/mL (≈ 76.6 µM)
Therapeutic index (TI) VAR-BSH Vero [5]: 3.2
IC50 ([5]; read-out: IC50, VAR isolate Bangladesh): 17 µg/mL (≈ 65.1 µM)
IC50 ([5]; read-out: IC50 VAR-BSH Vero): 25.3 µg/mL (≈ 96.9 µM)
Therapeutic index (TI) MPX Vero [6]: 6.5
IC50 ([6]; read-out: IC50, MPX): 21 µg/mL (≈ 80.4 µM)
IC50 ([6]; read-out: IC50 MPX Vero): 12.3 µg/mL (≈ 47.1 µM)
IC50 (VAR isolate V72-119): 18 µg/mL (≈ 68.9 µM)
IC50 (VAR isolate V73-175): 16 µg/mL (≈ 61.3 µM)
IC50 (VAR isolate V77-1605): 22 µg/mL (≈ 84.2 µM)
IC50 (VAR isolate 102): 38 µg/mL (≈ 145 µM)
IC50 (VAR isolate 7124): 26 µg/mL (≈ 99.6 µM)
Therapeutic index (TI) VAC Vero (VAC Copenhagen [7]): 4.4
IC50 (VAC Copenhagen [7]; Orthopoxvirus vaccinia, Vero, read-out: IC50 VAC Vero): 18.1 µg/mL (≈ 69.3 µM)
IC50 (VAR isolate V70-222): 23 µg/mL (≈ 88.1 µM)
Therapeutic index (TI) VAC LLC-MK2 (VAC Copenhagen [8]): 22.7
IC50 (VAC Copenhagen [8]; Orthopoxvirus vaccinia, LLC-MK2, read-out: IC50 VAC LLC-MK2): 4.4 µg/mL (≈ 16.8 µM)
IC50 (VAR isolate Jee): 7 µg/mL (≈ 26.8 µM)
IC50 (VAR isolate Minn124): 9 µg/mL (≈ 34.5 µM)
IC50 (VAR isolate V70-46): 13 µg/mL (≈ 49.8 µM)
Therapeutic index (TI) VAR-GAR LLC-MK2 [9]: 16.9
IC50 ([9]; LLC-MK2, read-out: IC50 VAR-GAR LLC-MK2): 5.9 µg/mL (≈ 22.6 µM)
IC50 (VAR isolate Heidelberg): 14 µg/mL (≈ 53.6 µM)
Cytotoxicity TC50 LLC-MK2 (LLC-MK2 cells): >100 µg/mL
IC50 (VAR isolate Higgins): 17 µg/mL (≈ 65.1 µM)
Therapeutic index (TI) VAR-GAR Vero [10]: 10.1
IC50 ([10]; read-out: IC50, VAR isolate Garcia): 4 µg/mL (≈ 15.3 µM)
IC50 ([10]; read-out: IC50 VAR-GAR Vero): 7.9 µg/mL (≈ 30.2 µM)
Cytotoxicity TC50 Vero (Vero cells): 80.0 µg/mL
IC50 (all VAR isolates tested): 17 ± 2 µg/mL (≈ 65.1 µM)
IC50 (VAR isolate Shahzaman): 14 µg/mL (≈ 53.6 µM)
IC50 (VAR isolate Horn): 12 µg/mL (≈ 45.9 µM)
IC50 [11]: 21.6 ± 7.6 µg/mL (≈ 82.7 µM)
IC50 (VAR isolate Iran 2602): 7 µg/mL (≈ 26.8 µM)
Therapeutic index (TI) VAR-YAM Vero [12]: 2.8
IC50 ([12]; read-out: IC50, VAR isolate Yamada): 31 µg/mL (≈ 119 µM)
IC50 ([12]; read-out: IC50 VAR-YAM Vero): 28.2 µg/mL (≈ 108 µM)
IC50 (VAR isolate 7125): 24 µg/mL (≈ 91.9 µM)
Therapeutic index (TI) CPX Vero (CPX Brighton [13]): 3.0
IC50 (CPX Brighton [13]; read-out: IC50, CPX): 52 µg/mL (≈ 199 µM)
IC50 (CPX Brighton [13]; read-out: IC50 CPX Vero): 26.9 µg/mL (≈ 103 µM)
IC50 (VAR isolate Hinden): 19 µg/mL (≈ 72.7 µM)
